# Assay results reported in the supplement of paper PMC10307832.
# Experiments:
# GSK-J4 + Dasatinib = compound: CCOC(=O)CCNc1cc(N2CCc3ccccc3CC2)nc(-c2ccccn2)n1 [GSK-J4] + Cc1nc(Nc2ncc(C(=O)Nc3c(C)cccc3Cl)s2)cc(N2CCN(CCO)CC2)n1 [Dasatinib] (partner 0.075 µM); test: relative viability (nuclei count vs DMSO), 5 days (fraction); higher = more cells survive
# Outline: (§1)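 The day after seeding in 1536-well plates, lung cancer cell lines were treated by pin tool with a single drug, or with a fixed anchor-drug dose together with five library-drug doses (not always all listed) in √10 steps. After 5 days, a combined fix-and-stain solution (final 0.05% Triton X-100, 1% formaldehyde, 1 ug/ml Hoechst) was added. Nuclei counted on 4× images gave relative viability as treated counts over vehicle counts, reported as the median of duplicate plates.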
# GSK-J4 + Luminespib = compound: CCOC(=O)CCNc1cc(N2CCc3ccccc3CC2)nc(-c2ccccn2)n1 [GSK-J4] + CCNC(=O)c1noc(-c2cc(C(C)C)c(O)cc2O)c1-c1ccc(CN2CCOCC2)cc1 [Luminespib] (partner 0.01 µM); test: as above
# Outline: as §1
Cell Line,relative viability (GSK-J4 + Dasatinib; first compound 0.5 µM),relative viability (GSK-J4 + Dasatinib; first compound 1.581 µM),relative viability (GSK-J4 + Dasatinib; first compound 5 µM),relative viability (GSK-J4 + Dasatinib; first compound 15.81 µM),relative viability (GSK-J4 + Dasatinib; first compound 50 µM),relative viability (GSK-J4 + Luminespib; first compound 0.5 µM),relative viability (GSK-J4 + Luminespib; first compound 1.581 µM),relative viability (GSK-J4 + Luminespib; first compound 5 µM),relative viability (GSK-J4 + Luminespib; first compound 15.81 µM),relative viability (GSK-J4 + Luminespib; first compound 50 µM)
NCI-H1563,0.51,0.695,0.461,0.42,0.417,0.513,0.484,0.477,0.502,0.526
LC-2-ad,0.689,0.429,0.535,0.44,0.351,0.851,0.889,0.701,0.886,0.54
NCI-H2126,0.603,0.47,0.587,0.56,0.444,0.796,0.867,0.876,0.82,0.651
